According to patent publication US20250073255A1, “USE OF FA-TYPE LIPID COMPOUNDS IN PREPARATION OF NUCLEIC ACID DELIVERY REAGENT AND RELATED PRODUCT” (BEIJING BAISHIKANG PHARMACEUTICAL TECHNOLOGY (BSJPHARMA) …, priority 2021, published 2025):

Test system: C57BL/6 male mice
Experiment: In vivo delivery study of lipid nucleic acid mixture (oral gavage, RT-qPCR of PGY-sRNA-26 in tissues)
Design: species or system mouse
Conditions: for oral delivery of single-stranded sRNA nucleic acids into mouse intestinal tissue: intestine; for oral delivery of single-stranded sRNA nucleic acids into mouse heart tissue: vs free uptake group; for overall delivery efficacy: delivering nucleic acids into each tissue and blood tested: 100 μg lipid:10 nmol PGY-sRNA-26, all tissues and blood tested
Method: 10 nmol of small RNA (as shown in Table 2) was dissolved in 400 μl of DEPC-treated water in a glass tube, 10 μl of the corresponding lipid stock solution was added such that the lipid mass in the system was 100 μg. The mixture was mixed thoroughly, heated in a 90° C. water bath for 15 minutes, and then cooled naturally to obtain the lipid nucleic acid mixture of lipid and small RNA.
C57BL/6 male mice, approximately 6 weeks old, weighing […], were obtained from Beijing Vital River Laboratory Animal Technology Co., Ltd. The mice were housed in the SPF-grade animal facility at the Animal Center of the Institute of Basic Medical Sciences, Chinese Academy of Medical Sciences. The mice were fasted for 12 hours before gavage administration.
The lipid nucleic acid mixture was prepared following the method described in Example 2. The resultant lipid nucleic acid mixture was orally administered to each mouse at a dose of 100 μg lipid:10 nmol single-stranded 3-methylated small RNA PGY-sRNA-26.
• 1) Blank group (n=4): mice were administered with 500 μl saline by gavage, this group served as a blank control; • 2) Free uptake group (n=4): mice were directly administered with small RNA PGY-sRNA-26 solution (10 nmol/mouse, 500 l) by gavage, this group served as a negative control; • 3) Lipid-treated group (n=4): mice were administered with 500 μl lipid nucleic acid mixture prepared in step 2 by gavage.
After 12 hours of gavage administration, 500 μl blood from the eyeball of each mouse was sampled, added to 1.5 ml Trizol Reagent LS (purchased from Invitrogen), thoroughly mixed for lysis. 3 ml of Trizol Reagent LSwas added to tissue samples and homogenized for complete lysis, wherein the sampled tissues include heart, liver, spleen, lung, kidney, stomach, intestine, brain, blood, femur, pancreas. RNAwas extracted from 1 ml of the blood or the tissue lysate following the steps below: • Centrifuge at 4° C., 12,000 rpm for 5 min, discard the precipitate, transfer Trizol to a new centrifuge tube; • Add chloroform at 200 μL chloroform/mL Trizol, shake well, stand at room temperature for 5 min; • Centrifuge at 4° C., 12,000 rpm for 15 min; • Take the upper aqueous phase to another centrifuge tube, add isopropanol at 0.4 mL isopropanol/mL Trizol, mix well, and stand at low temperature for 10-20 min; • Centrifuge at 4° C., 12,000 rpm for 15 min, discard the supernatant, RNA precipitated at the bottom of the tube; • Add 1 mL of 75% ethanol, gently shake the centrifuge tube, suspend the precipitate; • Centrifuge at 4° C., 12,000 rpm for 15 min, discard the supernatant, add 1 mL of 75% ethanol, gently shake the centrifuge tube, suspend the precipitate; • Centrifuge at 4° C., 12,000 rpm for 15 min, discard the supernatant, air-dry at room temperature, dissolve RNA samples in 50 μL RNase-free H2O, measure OD value to quantify RNA concentration. 3.3 Reverse Transcription of sRNA to cDNA:
sRNA was reverse transcribed to cDNA using the High-Capacity cDNA Reverse Transcription Kit (Applied Biosystems, cat. no. 4368813) by stem-loop method (see, e.g., “Real-time quantification of microRNAs by stem-loop RT-PCR, Nucleic Acids Res. 2005 Nov. 27; 33(20):e179”, incorporated herein by reference). The reverse transcription system is as follows: Template RNA (200 ng/μL) 10 μL, 10×RT Buffer 2.0 μL, 25×dNTP Mix (100 mM) 0.8 μL, U6 RT stem-loop primer (10 μM) 2.0 μL, PGY-sRNA-26 RT stem-loop primer (10 μM) 2.0 μL, MultiScribe™ Reverse Transcriptase (50 U/μL) 1.0 μL, RNAse Inhibitor (40 U/μL) 1.0 μL, nuclease-free H2O 1.2 μL. After transient centrifugation, the reverse transcription system was placed in a PCR machine with the following reaction conditions: (1) 25° C., 10 min; (2) 37° C., 120 min; (3) 85° C., 5 min; (4) 4° C., stop reaction. After the reaction, add 20 μL RNAse-free ddH2O, adjust the final volume to 40 μL. […]

[1] = 100 μg lipid:10 nmol PGY-sRNA-26, sampled after 12 hours

CC1(O)CCCC1 [Lipid 503]
oral delivery of single-stranded sRNA nucleic acids into mouse blood [1]: can effectively orally deliver | oral delivery of single-stranded sRNA nucleic acids into mouse brain tissue [1]: can effectively orally deliver | oral delivery of single-stranded sRNA nucleic acids into mouse intestinal tissue [1]: can effectively orally deliver | oral delivery of single-stranded sRNA nucleic acids into mouse kidney tissue [1]: can effectively orally deliver | oral delivery of single-stranded sRNA nucleic acids into mouse liver tissue [1]: can effectively orally deliver | oral delivery of single-stranded sRNA nucleic acids into mouse lung tissue [1]: can effectively orally deliver | oral delivery of single-stranded sRNA nucleic acids into mouse spleen tissue [1]: can effectively orally deliver | oral delivery of single-stranded sRNA nucleic acids into mouse stomach tissue [1]: can effectively orally deliver

CCCCC/C=C\C/C=C\CCCCCCCCOC(=O)CCCCCCCCCCCCCCC [Lipid 804, [(9Z,12Z)-octadeca-9,12-dienyl] hexadecanoate]
oral delivery of single-stranded sRNA nucleic acids into mouse blood [1]: can effectively orally deliver | oral delivery of single-stranded sRNA nucleic acids into mouse brain tissue [1]: can effectively orally deliver | oral delivery of single-stranded sRNA nucleic acids into mouse femur [1]: can effectively orally deliver | oral delivery of single-stranded sRNA nucleic acids into mouse heart tissue [1]: can effectively orally deliver | oral delivery of single-stranded sRNA nucleic acids into mouse intestinal tissue [1]: can effectively orally deliver | oral delivery of single-stranded sRNA nucleic acids into mouse kidney tissue [1]: can effectively orally deliver | oral delivery of single-stranded sRNA nucleic acids into mouse liver tissue [1]: can effectively orally deliver | oral delivery of single-stranded sRNA nucleic acids into mouse lung tissue [1]: can effectively orally deliver | oral delivery of single-stranded sRNA nucleic acids into mouse pancreatic tissue (100 μg lipid:10 nmol PGY-sRNA-26, sampled after 12 hours, pancreas): can effectively orally deliver | oral delivery of single-stranded sRNA nucleic acids into mouse spleen tissue [1]: can effectively orally deliver | oral delivery of single-stranded sRNA nucleic acids into mouse stomach tissue [1]: can effectively orally deliver

O=C(O)C/C=C/CC(=O)O [Lipid 607, (E)-hex-3-enedioic acid]
oral delivery of single-stranded sRNA nucleic acids into mouse blood [1]: can effectively orally deliver | oral delivery of single-stranded sRNA nucleic acids into mouse femur [1]: can effectively orally deliver | oral delivery of single-stranded sRNA nucleic acids into mouse heart tissue [1]: can effectively orally deliver | oral delivery of single-stranded sRNA nucleic acids into mouse kidney tissue [1]: can effectively orally deliver | oral delivery of single-stranded sRNA nucleic acids into mouse liver tissue [1]: can effectively orally deliver | oral delivery of single-stranded sRNA nucleic acids into mouse stomach tissue [1]: can effectively orally deliver

CCCCC/C=C\C/C=C\C/C=C\C/C=C\C/C=C\CCC(=O)O [Lipid 542, (4Z,7Z,10Z,13Z,16Z)-docosa-4,7,10,13,16-pentaenoic acid]
overall delivery efficacy: delivering nucleic acids into each tissue and blood tested: best delivery efficacy | oral delivery of single-stranded sRNA nucleic acids into mouse blood [1]: can effectively orally deliver | oral delivery of single-stranded sRNA nucleic acids into mouse brain tissue [1]: can effectively orally deliver | oral delivery of single-stranded sRNA nucleic acids into mouse femur [1]: can effectively orally deliver | oral delivery of single-stranded sRNA nucleic acids into mouse heart tissue [1]: can effectively orally deliver | oral delivery of single-stranded sRNA nucleic acids into mouse intestinal tissue [1]: can effectively orally deliver | oral delivery of single-stranded sRNA nucleic acids into mouse kidney tissue [1]: can effectively orally deliver | oral delivery of single-stranded sRNA nucleic acids into mouse liver tissue [1]: can effectively orally deliver | oral delivery of single-stranded sRNA nucleic acids into mouse lung tissue [1]: can effectively orally deliver | oral delivery of single-stranded sRNA nucleic acids into mouse spleen tissue [1]: can effectively orally deliver | oral delivery of single-stranded sRNA nucleic acids into mouse stomach tissue [1]: can effectively orally deliver

O=C(O)C[C@H]1CCC(=O)[C@@H]1C/C=C\CCO [Lipid 543]
overall delivery efficacy: delivering nucleic acids into each tissue and blood tested: best delivery efficacy | oral delivery of single-stranded sRNA nucleic acids into mouse blood [1]: can effectively orally deliver | oral delivery of single-stranded sRNA nucleic acids into mouse brain tissue [1]: can effectively orally deliver | oral delivery of single-stranded sRNA nucleic acids into mouse femur [1]: can effectively orally deliver | oral delivery of single-stranded sRNA nucleic acids into mouse heart tissue [1]: can effectively orally deliver | oral delivery of single-stranded sRNA nucleic acids into mouse intestinal tissue [1]: can effectively orally deliver | oral delivery of single-stranded sRNA nucleic acids into mouse kidney tissue [1]: can effectively orally deliver | oral delivery of single-stranded sRNA nucleic acids into mouse liver tissue [1]: can effectively orally deliver | oral delivery of single-stranded sRNA nucleic acids into mouse lung tissue [1]: can effectively orally deliver | oral delivery of single-stranded sRNA nucleic acids into mouse spleen tissue [1]: can effectively orally deliver | oral delivery of single-stranded sRNA nucleic acids into mouse stomach tissue [1]: can effectively orally deliver

CCCCCCCCCCCCCCCC(=O)NCCO [Lipid 578, N-(2-hydroxyethyl)hexadecanamide]
oral delivery of single-stranded sRNA nucleic acids into mouse blood [1]: can effectively orally deliver | oral delivery of single-stranded sRNA nucleic acids into mouse brain tissue [1]: can effectively orally deliver | oral delivery of single-stranded sRNA nucleic acids into mouse femur [1]: can effectively orally deliver | oral delivery of single-stranded sRNA nucleic acids into mouse heart tissue [1]: can effectively orally deliver | oral delivery of single-stranded sRNA nucleic acids into mouse kidney tissue [1]: can effectively orally deliver | oral delivery of single-stranded sRNA nucleic acids into mouse liver tissue [1]: can effectively orally deliver | oral delivery of single-stranded sRNA nucleic acids into mouse lung tissue [1]: can effectively orally deliver | oral delivery of single-stranded sRNA nucleic acids into mouse spleen tissue [1]: can effectively orally deliver | oral delivery of single-stranded sRNA nucleic acids into mouse stomach tissue [1]: can effectively orally deliver

CCCCCCOC(=O)CCC [Lipid 614, hexyl butanoate]
oral delivery of single-stranded sRNA nucleic acids into mouse blood [1]: can effectively orally deliver | oral delivery of single-stranded sRNA nucleic acids into mouse brain tissue [1]: can effectively orally deliver | oral delivery of single-stranded sRNA nucleic acids into mouse femur [1]: can effectively orally deliver | oral delivery of single-stranded sRNA nucleic acids into mouse heart tissue [1]: can effectively orally deliver | oral delivery of single-stranded sRNA nucleic acids into mouse intestinal tissue [1]: can effectively orally deliver | oral delivery of single-stranded sRNA nucleic acids into mouse liver tissue [1]: can effectively orally deliver | oral delivery of single-stranded sRNA nucleic acids into mouse lung tissue [1]: can effectively orally deliver | oral delivery of single-stranded sRNA nucleic acids into mouse spleen tissue [1]: can effectively orally deliver

C=C(CC(=O)O)C(=O)O [Lipid 626, 2-methylidenebutanedioic acid]
oral delivery of single-stranded sRNA nucleic acids into mouse blood [1]: can effectively orally deliver | oral delivery of single-stranded sRNA nucleic acids into mouse brain tissue [1]: can effectively orally deliver | oral delivery of single-stranded sRNA nucleic acids into mouse femur [1]: can effectively orally deliver | oral delivery of single-stranded sRNA nucleic acids into mouse heart tissue [1]: can effectively orally deliver | oral delivery of single-stranded sRNA nucleic acids into mouse intestinal tissue [1]: can effectively orally deliver | oral delivery of single-stranded sRNA nucleic acids into mouse kidney tissue [1]: can effectively orally deliver | oral delivery of single-stranded sRNA nucleic acids into mouse liver tissue [1]: can effectively orally deliver | oral delivery of single-stranded sRNA nucleic acids into mouse lung tissue [1]: can effectively orally deliver
